test system: compound 48/80-induced lethality; assay: Protection of rats from compound 48/80-induced lethality; assay type: in vivo, rat (male, inbred Wistar strain); conditions: Rattus norvegicus; dose protecting 50% of animals; s.c. or oral, 1 hour before compound 48/80 0.5 mg/kg i.v.; survival after 4 hours; read-out: compound 48/80 lethality test in rats-ED50
From the text: Protection of rats from compound 48/80-induced lethality
Compound 48/80, a mixture of oligomers obtained by condensation of 4-methoxy-N-methylbenzeneethanamine and formaldehyde has been described as a potent histamine releasing agent (Int. Arch. Allergy, 13, 336 (1958)). The protection from compound 48/80-induced lethal circulatory collapse appears to be a simple way of evaluating quantitatively the antihistaminic activity of test compounds. Male rats of an inbred Wistar strain, weighing 240-260 g were used in the experiment. After overnight starvation the rats were transferred to conditioned laboratories (temp.=21°±1° C., relative humidity=65±5%). The rats were treated subcutaneously or orally with a test compound or with the solvent (NaCl solution, 0.9%). One hour after treatment there was injected intraveneously compound 48/80, freshly dissolved in water, at a dose of 0.5 mg/kg (0.2 ml/100 g of body weight). In control experiments, wherein 250 solvent-treated animals were injected with the standard dose of compound 48/80, not more than 2.8% of the animals survived after 4 hours. Survival after 4 hours is therefore considered to be a safe criterion of a protective effect of drug administration. Said ED50 -values are the values in mg/kg body weight at which the tested compounds protect 50% of the tested animals against compound 48/80-induced lethality.

Q: `CCOCCn1c(CN2CCN(CCc3scnc3C)CC2)nc2cccnc21` [Compound 74, 3-(2-ethoxyethyl)-2-[[4-[2-(4-methyl-5-thiazolyl)ethyl]-1-piperazinyl]methyl]-3H-imidazo[4,5-b]pyridine] was tested. Which ED50 did it give?
A: 0.01 mg/kg

Q: How did the ED50 turn out when `CCOCCn1c(CN2CCN(CCCn3c(=O)[nH]c4ccccc43)CC2)nc2cccnc21` [Compound 77, 1-[3-[4-[[3-(2-ethoxyethyl)-3H-imidazo[4,5-b]pyridin-2-yl]methyl]-1piperazinyl]propyl]-1,3-dihydro-2H-benzimidazol-2-one] was run?
A: 0.02 mg/kg

Q: `CCOCCn1c(CN2CCN(C)CC2)nc2cccnc21` [Compound 17, 3-(2-ethoxyethyl)-2-[(4-methyl-1-piperazinyl)methyl]-3H-imidazo[4,5-b]pyridine] was tested. Which ED50 did it give?
A: 0.04 mg/kg

Q: For `CCOCCn1c(CN2CCN(CCC(=O)NC(C)C)CC2)nc2cccnc21` [Compound 93, 4-[[3-(2-ethoxyethyl)-3H-imidazo[4,5-b]pyridin-2-yl]methyl]-N-(1-methylethyl)-1-piperazinepropanamide], which ED50 is on record?
A: 0.01 mg/kg

Q: `CCOCCn1c(CN2CCN(CCc3c(C)nc4ccccn4c3=O)CC2)nc2cccnc21` [Compound 76, 3-[2-[4-[[3-(2-ethoxyethyl)-3H-imidazo[4,5-b]pyridin-2-yl]methyl]-1-piperazinyl]ethyl]-2-methyl-4H-pyrido[1,2-a]pyrimidin-4-one] was tested. Which ED50 did it give?
A: 0.02 mg/kg

Q: `CCOCCn1c(CN2CCN(CCCC(C)=O)CC2)nc2cccnc21` [Compound 44] was tested. Which ED50 did it give?
A: 0.005 mg/kg

Q: How did the ED50 turn out when `CCOCCn1c(CN2CCN(CCc3ccccn3)CC2)nc2cccnc21` [Compound 120, 3-(2-ethoxyethyl)-2-[[4-[2-(2-pyridinyl)ethyl]-1-piperazinyl]methyl]-3H-imidazo[4,5-b]pyridine] was run?
A: 0.005 mg/kg

Q: With `Cc1ccc(Cn2c(CN3CCN(C)CC3)nc3cccnc32)o1` [Compound 14, 3-[(5-methyl-2-furanyl)methyl]-2-[ (4-methyl-1-piperazinyl)methyl]-3H-imidazo[4,5-b]pyridine] as the compound, how does the ED50 read?
A: 0.01 mg/kg

Q: With `CCOCCn1c(CN2CCN(CCNc3ncccn3)CC2)nc2cccnc21` [Compound 105, N-[2-[-4-[[3-(2-ethoxyethyl)-3H-imidazo[4,5-b]pyridin-2-yl]methyl]-1-piperazinyl]ethyl]-2-pyrimidinamine] as the compound, how does the ED50 read?
A: 0.01 mg/kg

Q: `CCOCCN1CCN(Cc2nc3cccnc3n2CCOCC)CC1` [Compound 42] was tested. Which ED50 did it give?
A: 0.02 mg/kg

Q: `C#CCOCCn1c(CN2CCN(C)CC2)nc2cccnc21` [Compound 125, 2-[(4-methyl-1-piperazinyl)methyl]-3-[2-(2-propynyloxy)ethyl]-3H-imidazo[4,5-b]pyridine] was tested. Which ED50 did it give?
A: 0.02 mg/kg

Q: How did the ED50 turn out when `CCOCCn1c(CN2CCN(CCc3ccc(OC)cc3)CC2)nc2cccnc21` [Compound 47] was run?
A: 0.02 mg/kg

Q: With `CCOCCn1c(CN2CCN(CCNC(=O)c3cccn3C)CC2)nc2cccnc21` [Compound 111, N-[2-[4-[[3-(2-ethoxyethyl)-3H-imidazo[4,5-b]pyridin-2-yl]methyl]-1-piperazinyl]ethyl]-1-methyl-1H-pyrrole-2-carboxamide] as the compound, how does the ED50 read?
A: 0.02 mg/kg

Q: For `C=CCOCCn1c(CN2CCN(C)CC2)nc2cccnc21` [Compound 126, 2-[(4-methyl-1-piperazinyl)methyl]-3-[2-(2-propenyloxy)ethyl]-3H-imidazo[4,5-b]pyridine], which ED50 is on record?
A: 0.02 mg/kg

Q: For `CCOCCn1c(CN2CCN(CCCOc3ccc(F)cc3)CC2)nc2cccnc21` [Compound 79, 3-(2-ethoxyethyl)-2-[[4-[3-(4-fluorophenoxy)propyl]-1-piperazinyl]methyl]-3H-imidazo[4,5-b]pyridine], which ED50 is on record?
A: 0.02 mg/kg

Q: For `CCOCCn1c(CN2CCN(CCNC(=O)c3ccoc3)CC2)nc2cccnc21` [Compound 110, N-[2-[4-[[3-(2-ethoxyethyl)-3H-imidazo[4,5-b]pyridin-2-yl]methyl]-1-piperazinyl]ethyl]-3-furancarboxamide], which ED50 is on record?
A: 0.01 mg/kg
